Assay [1] relates to Glo-Response ARE-luc2P HEK293 cell line. Put plainly: ARE luciferase reporter cell-based assay.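 Note: luciferase signal tracks Nrf2 activation of the ARE once compounds disrupt KEAP1-Nrf2 binding, read with One-Glo reagent, DMSO serving as low control.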 Conditions: Homo sapiens, HEK293, 24 h, average of results obtained. On the technique in general: Reporter assays use an easily measured gene product as a stand-in for the process of interest.
Assay [2] has as its target Kelch domain of human KEAP1 (321-624 aa) (Homo sapiens (Human), UniProt Q14145). In words: KEAP1 KELCH ThermoFluor binding assay.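 Note: Ligand-induced melting temperature shift of E. coli-expressed KEAP1 Kelch protein, Kd estimated from concentration-response curves of ΔTm.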 Conditions: KEAP Kelch […], 1,8-ANS, pH 7.0, average of results obtained, read-out: Tf Kd.

Molecules are shown by their SMILES. Where only a bound is given, the exact number is not on record here.

Chain of Kelch domain of human KEAP1 (321-624 aa) (Q14145 321-624): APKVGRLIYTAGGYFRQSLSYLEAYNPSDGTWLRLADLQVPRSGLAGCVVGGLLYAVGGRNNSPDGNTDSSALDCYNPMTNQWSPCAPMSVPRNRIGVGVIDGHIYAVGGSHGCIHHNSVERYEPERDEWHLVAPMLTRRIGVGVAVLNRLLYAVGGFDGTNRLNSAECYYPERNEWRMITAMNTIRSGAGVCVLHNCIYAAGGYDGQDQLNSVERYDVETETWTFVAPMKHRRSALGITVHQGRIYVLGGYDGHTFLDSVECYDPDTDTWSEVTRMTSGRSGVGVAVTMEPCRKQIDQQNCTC

On to `Cc1cnc2c(c1)S(=O)(=O)N(Cc1cc([C@H](c3ccc4c(nnn4C4CC4)c3C)C(C)(C)C(=O)O)cnc1C)CC1(COC1)O2` (single isomer, unassigned) [Example 624, (*S)-3-(1-Cyclopropyl-4-methyl-1H-benzo[d][1,2,3]triazol-5-yl)-2,2-dimethyl-3-(6-methyl-5-((8′-methyl-1′,1′-dioxidospiro[oxetane-3,4′-pyrido[2,3-b][1,4,5]]oxathiazepin]-2′(3′H)-yl)methyl)pyridine-3-yl)propanoic Acid], for which it took 3660 nM to reach a half-maximal effect in assay [1] (EC50). Also, in assay [2], the Kd (in general, the constant that tells how readily two partners part at equilibrium) came out at 18400 nM.

On to `Cc1ccc([C@H](c2ccn3c(C4CC4)nnc3c2C)C(C)(C)C(=O)O)cc1CN1CC2(COC2)Oc2ncccc2S1(=O)=O` (single isomer, unassigned) [Example 620, (*R)-3-(3-Cyclopropyl-8-methyl-[1,2,4]triazolo[4,3-a]pyridin-7-yl)-3-(3-((1′,1′-dioxidospiro[oxetane-3,4′-pyrido[2,3-b][1,4,5]oxathiazepin]-2′(3′H)-yl)methyl)-4-methylphenyl)-2,2-dimethylpropanoic Acid], for which the concentration for a half-maximal effect (EC50) (usually the concentration needed to bring the measured effect to its halfway point) in assay [1] was found to be 7.87 nM. In assay [2], the dissociation constant (Kd) was < 1 nM.

For `Cc1ccc(C(CC(=O)O)c2ccn3c(C(F)F)nnc3c2C)cc1CN1CC2CCCCN2c2ncc(C#N)cc2S1(=O)=O` (stereo not drawn) [Example 28, 3-(3-((3-Cyano-5,5-dioxido-7,7a, 8,9,10,11-hexahydro-6H-dipyrido[2,1-d:2′,3′-f][1,2,5]thiadiazepin-6-yl)methyl)-4-methylphenyl)-3-(3-(difluoromethyl)-8-methyl-[1,2,4]triazolo[4,3-a]pyridin-7-yl)propanoic Acid], a half-maximal response in assay [1] (EC50) required 23.5 nM. Also, the dissociation constant Kd in assay [2] is < 1 nM.

For the compound `Cc1ccc([C@H](c2ccn3c(C(F)(F)F)nnc3c2C)C(C)(C)C(=O)O)cc1CN1CC2(CC2)Oc2nc(OCCN3CCCC3)c(C)cc2S1(=O)=O` (single isomer, unassigned) [Example 658, (*R)-2,2-dimethyl-3-(4-methyl-3-((8′-methyl-1′,1′-dioxido-7′-(2-(pyrrolidin-1-yl)ethoxy)spiro[cyclopropane-1,4′-pyrido[2,3-b][1,4,5]oxathiazepin]-2′(3′H)-yl)methyl)phenyl)-3-(8-methyl-3-(trifluoromethyl)-[1,2,4]triazolo[4,3-a]pyridin-7-yl)propanoic Acid], the midpoint of the response in assay [1], the EC50, lay at 6050 nM. Moreover, the Kd in assay [2] was 1210 nM.

As for `Cc1cnc2c(c1)S(=O)(=O)N(Cc1cc([C@@H](c3ccn4c(C5CC5)nnc4c3C)C(C)(C)C(=O)O)ccc1C)CC1(CC1)O2` (single isomer, unassigned) [Example 392, (*S)-3-(3-Cyclopropyl-8-methyl-[1,2,4]triazolo[4,3-a]pyridin-7-yl)-2,2-dimethyl-3-(4-methyl-3-((8′-methyl-1′,1′-dioxidospiro[cyclopropane-1,4′-pyrido[2,3-b][1,4,5]oxathiazepin]-2′(3′H)-yl)methyl)phenyl)propanoic Acid], the midpoint of the response in assay [1], the EC50, lay at 11.3 nM. Further, the Kd in assay [2] is < 1 nM.

In assay [1], `Cc1ccc(C(CC(=O)O)c2ccn3c(C(F)F)nnc3c2C)cc1CN1CC2(COC2)Oc2ncccc2S1(=O)=O` (stereo not drawn) [Example 469, 3-(3-(Difluoromethyl)-8-methyl-[1,2,4]triazolo[4,3-a]pyridin-7-yl)-3-(3-((1′,1′-dioxidospiro[oxetane-3,4′-pyrido[2,3-b][1,4,5]oxathiazepin]-2′(3′H)-yl)methyl)-4-methylphenyl)propanoic Acid] had an EC50 of 608 nM. In addition, the equilibrium dissociation constant (Kd) in assay [2] is < 1 nM.

As for `Cc1ccc([C@H](CC(=O)O)c2ccn3c(C(F)(F)F)nnc3c2C)cc1CN1CC2(COC2)Oc2ccccc2S1(=O)=O` (single isomer, unassigned) [Example 26, (*S)-3-(3-((1,1-Dioxidospiro[benzo[b][1,4,5]oxathiazepine-4,3′-oxetan]-2(3H)-yl)methyl)-4-methylphenyl)-3-(8-methyl-3-(trifluoromethyl)-[1,2,4]triazolo[4,3-a]pyridin-7-yl)propanoic Acid], the midpoint of the response in assay [1], the EC50, lay at 32 nM. For the same compound, the equilibrium dissociation constant (Kd) in assay [2] worked out at 0.174 nM.

Compound `Cc1ccc(C(CC(=O)O)c2ccn3c(C(F)F)nnc3c2C)cc1CN1CC2(CCOCC2)Oc2ccc(F)cc2S1(=O)=O` (stereo not drawn) [Example 523, 3-(3-(Difluoromethyl)-8-methyl-[1,2,4]triazolo[4,3-a]pyridin-7-yl)-3-(3-((8-fluoro-1,1-dioxido-2′,3′,5′,6′-tetrahydrospiro[benzo[b][1,4,5]oxathiazepine-4,4′-pyran]-2(3H)-yl)methyl)-4-methylphenyl)propanoic Acid] returned a concentration giving a half-maximal response (EC50) in assay [1] of 23.9 nM. The Kd in assay [2] is < 1 nM.

In turn, `Cc1cnc2c(c1)S(=O)(=O)N(Cc1nc([C@@H](c3ccn4c(C(F)F)nnc4c3C)C(C)(C)C(=O)O)ccc1C)CC1(CNC1)O2` (single isomer, unassigned) [Example 632, (*S)-3-(3-(Difluoromethyl)-8-methyl-[1,2,4]triazolo[4,3-a]pyridin-7-yl)-2,2-dimethyl-3-(5-methyl-6-((8′-methyl-1′,1′-dioxidospiro[azetidine-3,4′-pyrido[2,3-b][1,4,5]oxathiazepin]-2′(3′H)-yl)methyl)pyridin-2-yl)propanoic Acid] gave an EC50 in assay [1] of 18100 nM. Further, the Kd in assay [2] is 21200 nM.

Values taken from patent publication US10947252B2, “Inhibitors of KEAP1-Nrf2 protein-protein interaction” (Janssen Pharmaceutica NV, priority 2018, dated 2021).
